In brackets after ≈: the same amount, converted by molar mass. Activity calls are given as the source filed them. The rule behind the calls is not given here.
Experiments:
[1] = system: Candida tropicalis; test: Synergistic antifungal activity against Candida tropicalis 10186 assessed as inhibition of fungal growth incubated for 48 hrs in presence of fluconazole by checkerboard microdilution assay; format: functional, organism-based
[2] = system: Candida albicans; test: Antifungal activity against Candida albicans 0304103 assessed as log reduction in fungal growth at 8 ug/ml incubated for 48 hrs by time growth curve assay (reference value: 7.38 log10CFU/ml); format: functional; conditions: dose 8 µg/ml
[3] = system: Candida parapsilosis; test: Synergistic antifungal activity against Candida parapsilosis 20090 assessed as inhibition of fungal growth incubated for 48 hrs in presence of fluconazole by checkerboard microdilution assay; format: functional, organism-based
[4] = system: Cryptococcus neoformans; test: Antifungal activity against Cryptococcus neoformans H99 assessed as inhibition of fungal growth incubated for 72 hrs by time growth curve assay; format: functional, organism-based; conditions: dose 0.13-2 µg/ml
[5] = system: Candida albicans; test: Antifungal activity against Candida albicans 0304103 assessed as inhibition of filamentation at 2 ug/ml incubated for 3 hrs by inverted cell microscope based analysis; format: functional, organism-based; conditions: dose 2.0 µg/ml
[6] = system: Candida albicans; test: Antifungal activity against Candida albicans 0304103 assessed as downregulation of APH5 expression at 8 ug/ml incubated for 24 hrs in presence of fluconazole by RT-PCR analysis; format: functional, organism-based; conditions: dose 8.0 µg/ml
[7] = system: Cryptococcus neoformans; test: Antifungal activity against Cryptococcus neoformans ATCC 34877 assessed as reduction in fungal growth incubated for 72 hrs by liquid based microdilution method; format: functional
[8] = system: Candida tropicalis; test: Antifungal activity against Candida tropicalis 10186 assessed as reduction in fungal growth incubated for 48 hrs by liquid based microdilution method; format: functional
[9] = system: Candida albicans; test: Antifungal activity against Candida albicans 0304103 assessed as downregulation of ERG11 expression at 16 ug/ml incubated for 24 hrs in presence of fluconazole by RT-PCR analysis; format: functional, organism-based; conditions: dose 16.0 µg/ml
[10] = system: Pichia kudriavzevii; test: Synergistic antifungal activity against Candida krusei 10153 assessed as inhibition of fungal growth incubated for 48 hrs in presence of fluconazole by checkerboard microdilution assay; format: functional, organism-based
[11] = system: Candida albicans; test: Antifungal activity against Candida albicans SC5314 assessed as reduction in fungal growth incubated for 48 hrs by liquid based microdilution method; format: functional
[12] = system: Cryptococcus neoformans; test: In vivo antifungal activity against Cryptococcus neoformans H99 infected in cryptococcal meningitis ICR mouse model assessed as reduction in fungal burden in brain at 5 mg/kg, ip measured for 5 days (reference value: 8.18 log10CFU/g); format: functional; conditions: time 5 day
[13] = system: Candida albicans; test: Antifungal activity against Candida albicans 0304103 assessed as reversal of ERG11 expression by measuring fold change at 16 ug/ml incubated for 24 hrs in presence of fluconazole by RT-PCR analysis (reference value: 8.8); format: functional; conditions: dose 16 µg/ml
[14] = system: Candida albicans; test: Antifungal activity against Candida albicans 0304103 assessed as downregulation of GCA2 expression at 8 ug/ml incubated for 24 hrs in presence of fluconazole by RT-PCR analysis; format: functional, organism-based; conditions: dose 8.0 µg/ml
[15] = system: Candida albicans; test: Antifungal activity against Candida albicans 0304103 assessed as downregulation of RLM1 expression at 8 ug/ml incubated for 24 hrs in presence of fluconazole by RT-PCR analysis; format: functional, organism-based; conditions: dose 8.0 µg/ml
[16] = system: Cryptococcus neoformans; test: Antifungal activity against Cryptococcus neoformans H99 assessed as log reduction in fungal growth at 2 ug/ml incubated for 72 hrs by time growth curve assay (reference value: 7.65 log10CFU/ml); format: functional; conditions: dose 2 µg/ml
[17] = system: Candida albicans; test: Synergistic antifungal activity against Candida albicans 0304103 assessed as fractional inhibitory concentration index by measuring ratio of MIC80 for compound and synergetic / MIC80 for compound alone + MIC80 for fluconazole synergetic / MIC80 for fluconazole alone; format: functional
[18] = system: Candida albicans; test: In vivo antifungal activity against Candida albicans SC5314 infected in […] ICR mouse model assessed as reduction in fungal burden in kidney at 10 mg/kg, ip measured for 5 days; format: functional, organism-based; conditions: time 5.0 day
[19] = Antifungal activity against Cryptococcus gattii VGI ATCC 14116 assessed as reduction in fungal growth incubated for 72 hrs by liquid based microdilution method; format: functional
[20] = system: Candida albicans; test: Antifungal activity against Candida albicans 0304103 assessed as downregulation of CDR1 expression at 16 ug/ml incubated for 24 hrs in presence of fluconazole by RT-PCR analysis; format: functional, organism-based; conditions: dose 16.0 µg/ml
[21] = system: Candida albicans; test: Antifungal activity against Candida albicans 0304103 assessed as reduction in fungal growth incubated for 48 hrs by liquid based microdilution method; format: functional
[22] = system: Candida albicans; test: Antifungal activity against Candida albicans 0304103 assessed as downregulation of TEC1 expression at 8 ug/ml incubated for 24 hrs in presence of fluconazole by RT-PCR analysis; format: functional, organism-based; conditions: dose 8.0 µg/ml
[23] = system: Cryptococcus neoformans; test: Antifungal activity against Cryptococcus neoformans H99 assessed as inhibition of capsule growth 2 ug/ml measured after 24 hrs by laser confocal microscopy based analysis relative to control; format: functional; set-up: scale not given: the % may be the effect or the level left; conditions: dose 2 µg/ml
[24] = system: [Candida] auris; test: Synergistic antifungal activity against Candida auris 0029 assessed as inhibition of fungal growth incubated for 48 hrs in presence of fluconazole by checkerboard microdilution assay; format: functional, organism-based; conditions: Candidozyma auris
[25] = system: Nakaseomyces glabratus; test: Antifungal activity against Candida glabrata 9073 assessed as reduction in fungal growth incubated for 48 hrs by liquid based microdilution method; format: functional
[26] = system: Candida albicans; test: Antifungal activity against Candida albicans 0304103 assessed as inhibition of fungal growth at 8 ug/ml incubated for 48 hrs in presence of fluconazole by time growth curve assay; format: functional, organism-based; conditions: dose 8.0 µg/ml
[27] = system: Cryptococcus neoformans; test: Antifungal activity against Cryptococcus neoformans H99 assessed as inhibition of capsule growth at 0.063 to 2 ug/ml measured after 24 hrs by laser confocal microscopy based analysis; format: functional, organism-based; conditions: dose 0.063-2 µg/ml
[28] = Effective permeability of the compound across blood brain barrier incubated for 12 hrs by PAMPA assay; format: ADME; conditions: read-out: Peff
[29] = system: Candida albicans; test: Antifungal activity against Candida albicans 0304103 assessed as inhibition of fungal growth at 32 ug/ml incubated for 72 hrs by time growth curve assay; format: functional, organism-based; conditions: dose 32.0 µg/ml
[30] = system: Candida albicans; test: In vivo antifungal activity against Candida albicans 0304103 infected in […] ICR mouse model assessed as reduction in fungal burden in kidney at 5 mg/kg, ip measured for 5 days (reference value: 7.37 log10CFU/g); format: functional; conditions: time 5 day
[31] = system: Candida albicans; test: Antifungal activity against Candida albicans 0304103 assessed as downregulation of GCA1 expression at 8 ug/ml incubated for 24 hrs in presence of fluconazole by RT-PCR analysis; format: functional, organism-based; conditions: dose 8.0 µg/ml
[32] = system: Cryptococcus neoformans; test: Antifungal activity against Cryptococcus neoformans H99 assessed as reduction in fungal growth incubated for 72 hrs by liquid based microdilution method; format: functional
[33] = system: Clavispora lusitaniae; test: Synergistic antifungal activity against Candida lusitaniae 9150 assessed as inhibition of fungal growth incubated for 48 hrs in presence of fluconazole by checkerboard microdilution assay; format: functional, organism-based
[34] = system: Candida albicans; test: Synergistic antifungal activity against Candida albicans 0304103 assessed as inhibition of fungal growth incubated for 48 hrs in presence of fluconazole by checkerboard microdilution assay; format: functional
[35] = system: Candida albicans; test: Inhibition of biofilm formation in Candida albicans 0304103 at 2 ug/ml incubated for 24 hrs in presence of fluconazole by microplate based analysis relative to control; format: functional
[36] = system: Candida albicans; test: Inhibition of biofilm formation in Candida albicans 0304103 at 0.125 ug/ml incubated for 24 hrs by microplate based analysis relative to control; format: functional
[37] = system: Cryptococcus neoformans; test: Inhibition of biofilm formation in Cryptococcus neoformans H99 at 0.063 ug/ml incubated for 24 hrs by microplate based analysis relative to control; format: functional
[38] = system: Candida albicans; test: In vivo antifungal activity against Candida albicans SC5314 infected in […] ICR mouse model assessed as reduction in fungal burden in kidney at 10 mg/kg, ip measured for 5 days in presence of fluconazole; format: functional; conditions: time 5 day
[39] = system: Candida albicans; test: In vivo antifungal activity against Candida albicans 0304103 infected in […] ICR mouse model assessed as reduction in fungal burden in kidney at 5 mg/kg, ip measured for 5 days in presence of fluconazole (reference value: 7.37 log10CFU/g); format: functional; conditions: time 5 day
[40] = system: Candida albicans; test: Inhibition of biofilm formation in Candida albicans 0304103 at 2 ug/ml incubated for 24 hrs by microplate based analysis relative to control; format: functional

For `CO/N=C1/c2ccsc2C(=O)c2c(C)noc21`, the Activity [1] was “inactive”, the Activity [2] was 6.13 log10CFU/ml and the Activity [3] was “inactive”. For the same compound, the Activity [4] was “Dose-Dependent Effect”, the Activity [5] was “Active” and the Activity [6] was “Active”. For the same compound, the MIC80 [7] was 0.13 µg/mL (≈ 0.524 µM), the MIC80 [8] was 16 µg/mL (≈ 64.4 µM) and the Activity [9] was “Active”. The Activity [10] was “inactive”, the MIC80 [11] was > 64 µg/mL and the Activity [12] was 7.96 log10CFU/g. The “fold change (FC)” value [13] was 0.8, the Activity [14] was “Active” and the Activity [15] was “Active”. The Activity [16] was 6.22 log10CFU/ml, the “fractional inhibitory concentration index (FICI)” value [17] was 0.078 and the Activity [18] was “Active”. The MIC80 [19] was 4 µg/mL (≈ 16.1 µM), the Activity [20] was “Active” and the MIC80 [21] was 32 µg/mL (≈ 129 µM). The Activity [22] was “Active”, the Activity [23] was 100% and the Activity [24] was “inactive”. The MIC80 [25] was > 64 µg/mL, the Activity [26] was “Active” and the Activity [27] was “Active”. The Papp at 12 h [28] was 8.34 ×10⁻⁶ cm/s, the Activity [29] was “Active” and the Activity [30] was 5.73 log10CFU/g. For the same compound, the Activity [31] was “Active”, the MIC80 [32] was 0.016 µg/mL (≈ 0.0644 µM) and the Activity [33] was “inactive”. For the same compound, the MIC80 [34] was 2 µg/mL, the inhibition at 2 µg/mL [35] was 50% and the inhibition at 0.125 µg/mL [36] was 40%. For the same compound, the inhibition at 0.063 µg/mL [37] was > 90%, the Activity [38] was 5.02 log10CFU/g and the Activity [39] was 5.31 log10CFU/g. It also gave an inhibition at 2 µg/mL [40] of ~30%.

From ChEMBL document CHEMBL5518232, “Discovery of New Tricyclic Oxime Sampangine Derivatives as Potent Antifungal Agents for the Treatment of Cryptococcosis and Candidiasis” (J Med Chem, 2024)
